Earlier results as cited in patent publication US20060199791A1, “Anti-microbial composition comprising a metal ion chelating agent” (AQ+ PLC, priority 2001, published 2006).

Test system: long term sinus infection
Details: patient history, infection for some 14 to 15 years

SMILES: CCC[C@@H]1C[C@@H](C(=O)N[C@@H]([C@H]2O[C@H](SC)[C@H](O)[C@@H](O)[C@H]2O)[C@H](C)Cl)N(C)C1 [Clindramycin]
- response of the sinus infection to earlier antibiotic treatment: resistant to treatment

SMILES: O=C(O)c1cn(C2CC2)c2cc(N3CCNCC3)c(F)cc2c1=O [Cipro]
- response of the sinus infection to earlier antibiotic treatment: resistant to treatment

SMILES: CC1(C)S[C@@H]2[C@H](NC(=O)[C@H](N)c3ccc(O)cc3)C(=O)N2[C@H]1C(=O)O [Trimox]
- response of the sinus infection to earlier antibiotic treatment: resistant to treatment

SMILES: CC1(C)S[C@@H]2[C@H](NC(=O)COc3ccccc3)C(=O)N2[C@H]1C(=O)O [Veetids]
- response of the sinus infection to earlier antibiotic treatment: resistant to treatment
